Legend:
[1] = tested on: CYP enzymes in human liver microsomes (HLM); experiment: Inhibition of 20-HETE production in human liver microsomes (HLM); type: biochemical
In short: (§1)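 Liver microsomes (human or mouse) or recombinant CYP4F2 or CYP4A11 in potassium phosphate buffer mixed with compound, then with 400 μM substrate solution (stock). After 10 min preincubation at 37 °C, reaction started with 6 mM NADPH solution (stock) and run 25 min at 37 °C. 20-HETE formation quantified by LC-MS/MS; IC50 from a four-parameter Hill fit, with percent inhibition also reported at 1000, 500 or 100 nM.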

[2] = molecular target: recombinant CYP4A11 (rCYP4A11) (Homo sapiens (Human), UniProt Q02928); experiment: Inhibition of 20-HETE production by recombinant CYP4A11; type: biochemical
In short: as §1

[3] = tested on: diet-induced obesity (DIO) mouse model; experiment: Experiment 3: compound 2, weight loss and blood glucose lowering in DIO mouse model; type: in vivo, Male C57BL/6J mice
Description: Experiment 3 was to study the effects of compound 2 on weight loss and blood glucose lowering in a diet-induced obesity (DIO) mouse model. Male C57BL/6J mice were purchased from Zhuhai BST Biotechnology Co., Ltd. and housed in a barrier system animal facility. Animals were randomly divided into 3 groups: normal control group, DIO model control group, and DIO model compound 2 treatment group, with 6-8 animals per group. The model control group and treatment group were first fed with high-fat diet (HFD) for 9 weeks (day 63), and then the treatment group was orally administered with compound 2 at a dose of 30 mg/kg once daily for 8 consecutive weeks, while continuing to receive HFD. Animal weights were measured weekly, and on the last day of treatment, they were fasted overnight but allowed access to water before an oral glucose tolerance test (OGTT).

[4] = 30 mg/kg orally once daily for 8 weeks, DIO mice

Chain of recombinant CYP4A11 (rCYP4A11) (Q02928 5-519): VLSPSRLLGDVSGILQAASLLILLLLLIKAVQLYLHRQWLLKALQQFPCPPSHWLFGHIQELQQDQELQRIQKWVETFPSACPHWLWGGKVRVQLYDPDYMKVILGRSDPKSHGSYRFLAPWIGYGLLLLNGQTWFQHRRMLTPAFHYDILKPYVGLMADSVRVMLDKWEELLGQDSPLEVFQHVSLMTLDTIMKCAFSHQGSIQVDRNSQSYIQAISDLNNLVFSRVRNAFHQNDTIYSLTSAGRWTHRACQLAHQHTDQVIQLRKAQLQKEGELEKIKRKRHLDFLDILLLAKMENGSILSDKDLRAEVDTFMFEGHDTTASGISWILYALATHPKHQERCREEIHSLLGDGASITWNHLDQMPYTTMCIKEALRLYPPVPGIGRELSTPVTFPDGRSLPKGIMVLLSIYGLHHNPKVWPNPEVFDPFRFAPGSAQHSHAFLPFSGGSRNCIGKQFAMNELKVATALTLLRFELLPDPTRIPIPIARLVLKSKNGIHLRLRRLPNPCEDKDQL

## O=C1CCCN1CC1CCN(c2ccc(-c3cn[nH]c3)cc2F)CC1 [Compound 2, 1-((1-(2-fluoro-4-(1H-pyrazol-4-yl)phenyl)piperidin-4-yl)methyl)pyrrolidin-2-one]
[1]
  IC50: 28.7 nM
[1]; 500 nM
  HLM (% inh @ 500 nM): 79.50%
[2]
  IC50: 33.2 nM
[3]; [4]
  fasting blood glucose: inhibit the increase in fasting blood glucose
  glucose metabolism (OGTT): enhance their glucose metabolism
[3]; 30 mg/kg orally once daily, after 2 weeks
  food intake compared to the DIO model control group: no difference
[3]; 30 mg/kg orally once daily, after 8 weeks
  difference in weight gain relative to the DIO model control group: 47.1%
[3]; 30 mg/kg orally once daily, after 8 weeks, DIO mice
  body weight decrease, of pre-administration weight: 20.8%
[3]; 30 mg/kg orally once daily, first 2 weeks of administration
  food intake: decreased

Reference: patent publication US20250034116A1, “1,4-DIHETEROCYCLIC SUBSTITUTED AROMATIC RING OR AROMATIC HETEROCYCLIC COMPOUND AND USE THEREOF” (BeBetter Med Inc., priority 2022, published 2025)
